Assay results: US20250059188A1, “ARYLSULPHONAMIDE COMPOUNDS” (Anaxis Pharma Pty Ltd, priority 2021, published 2025)
pIC50, pKd: −log10 of the molar value.

Tests used:
[1] = biological target: human MLKL (full length) (Homo sapiens (Human), UniProt Q8NB16); assay: KINOMEscan binding assay, human MLKL (full length); settings: equilibrium dissociation constant
Outline: (§1)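 KINOMEscan competition binding using kinase-tagged T7 phage or HEK-293-produced DNA-tagged protein captured on ligand beads, with eluted protein quantified by qPCR. Compounds were run as an 11-point 3-fold series, top 30,000 nM, in 1% DMSO. Kd was fitted with the Hill equation, slope fixed at −1.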

[2] = biological target: mouse MLKL (full length) (Mus musculus (Mouse), UniProt Q9D2Y4); assay: KINOMEscan binding assay, mouse MLKL (full length); settings: equilibrium dissociation constant
Sequence of mouse MLKL (full length) (Q9D2Y4 whole entry): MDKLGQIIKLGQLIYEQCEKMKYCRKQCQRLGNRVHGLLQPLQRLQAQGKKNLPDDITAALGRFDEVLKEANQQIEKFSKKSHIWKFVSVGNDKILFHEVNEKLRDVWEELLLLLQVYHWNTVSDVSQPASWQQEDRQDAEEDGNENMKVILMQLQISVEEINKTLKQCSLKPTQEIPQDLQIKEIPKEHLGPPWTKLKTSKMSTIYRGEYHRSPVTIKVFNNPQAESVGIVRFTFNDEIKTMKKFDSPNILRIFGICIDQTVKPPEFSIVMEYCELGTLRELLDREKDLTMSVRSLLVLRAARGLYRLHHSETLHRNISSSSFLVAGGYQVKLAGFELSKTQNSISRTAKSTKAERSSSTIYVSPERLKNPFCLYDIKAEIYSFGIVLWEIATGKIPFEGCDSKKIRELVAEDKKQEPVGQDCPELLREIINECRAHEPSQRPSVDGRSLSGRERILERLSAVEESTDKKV
Description: Binding affinity of the test compounds for human MLKL (full length), mouse MLKL (full length), human RIPK1 and human RIPK3 was determined using the KINOMEscan™ technology developed by DiscoverX (USA; http://www.discoverx.com). The assay was conducted according to manufacturer instructions.
Kinase assays. For most assays, kinase-tagged T7 phage strains were grown in parallel in 24-well blocks in an E. coli host derived from the BL21 strain. E. coli were grown to log-phase and infected with T7 phage from a frozen stock (multiplicity of infection=0.4) and incubated with shaking at 32° C. until lysis (90-150 minutes). The lysates were centrifuged (6,000×g) and filtered (0.2 μm) to remove cell debris. The remaining kinases were produced in HEK-293 cells and subsequently tagged with DNA for qPCR detection. […] The liganded beads were blocked with excess biotin and washed with blocking buffer (SeaBlock (Pierce), 1% BSA, 0.05% Tween 20, 1 mM DTT) to remove unbound ligand and to reduce non-specific phage binding. […] All reactions were performed in polypropylene 384-well plates in a final volume of 20 μL. […] The kinase concentration in the eluates was measured by qPCR.
An 11-point 3-fold serial dilution of each test compound was prepared in 100% DMSO at 100× final test concentration and subsequently diluted to 1× in the assay (final DMSO concentration=1%). Most Kos were determined using a compound top concentration=30,000 nM.
KD for each test compound was calculated with a standard dose-response curve using the Hill equation (equation (1)): […]
The Hill Slope was set to −1.
Curves were fitted using a non-linear least square fit with the Levenberg-Marquardt algorithm.

[3] = biological target: human RIPK1 (Homo sapiens (Human), UniProt Q13546); assay: KINOMEscan binding assay, human RIPK1; settings: equilibrium dissociation constant
Sequence of human RIPK1 (Q13546 whole entry): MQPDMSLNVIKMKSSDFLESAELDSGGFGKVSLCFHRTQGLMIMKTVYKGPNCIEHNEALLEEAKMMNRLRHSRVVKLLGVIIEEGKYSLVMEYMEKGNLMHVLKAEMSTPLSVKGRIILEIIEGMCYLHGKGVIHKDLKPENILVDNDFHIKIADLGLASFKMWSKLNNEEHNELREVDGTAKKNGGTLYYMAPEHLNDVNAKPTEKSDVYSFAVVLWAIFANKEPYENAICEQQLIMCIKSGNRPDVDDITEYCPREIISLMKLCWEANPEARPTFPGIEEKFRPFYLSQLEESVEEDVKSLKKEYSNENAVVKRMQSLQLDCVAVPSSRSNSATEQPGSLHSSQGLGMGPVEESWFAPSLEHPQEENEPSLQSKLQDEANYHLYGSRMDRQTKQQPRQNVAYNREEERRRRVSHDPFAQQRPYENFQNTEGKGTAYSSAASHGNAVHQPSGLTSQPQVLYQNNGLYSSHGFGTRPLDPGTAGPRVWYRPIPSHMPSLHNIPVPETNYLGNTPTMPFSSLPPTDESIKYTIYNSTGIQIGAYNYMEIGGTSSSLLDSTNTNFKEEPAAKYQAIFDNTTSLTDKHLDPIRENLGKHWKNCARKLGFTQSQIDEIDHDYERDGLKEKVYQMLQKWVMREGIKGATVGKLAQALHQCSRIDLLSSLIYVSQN
Outline: as §1

[4] = biological target: human RIPK3 (Homo sapiens (Human), UniProt Q9Y572); assay: KINOMEscan binding assay, human RIPK3; settings: equilibrium dissociation constant
Sequence of human RIPK3 (Q9Y572 whole entry): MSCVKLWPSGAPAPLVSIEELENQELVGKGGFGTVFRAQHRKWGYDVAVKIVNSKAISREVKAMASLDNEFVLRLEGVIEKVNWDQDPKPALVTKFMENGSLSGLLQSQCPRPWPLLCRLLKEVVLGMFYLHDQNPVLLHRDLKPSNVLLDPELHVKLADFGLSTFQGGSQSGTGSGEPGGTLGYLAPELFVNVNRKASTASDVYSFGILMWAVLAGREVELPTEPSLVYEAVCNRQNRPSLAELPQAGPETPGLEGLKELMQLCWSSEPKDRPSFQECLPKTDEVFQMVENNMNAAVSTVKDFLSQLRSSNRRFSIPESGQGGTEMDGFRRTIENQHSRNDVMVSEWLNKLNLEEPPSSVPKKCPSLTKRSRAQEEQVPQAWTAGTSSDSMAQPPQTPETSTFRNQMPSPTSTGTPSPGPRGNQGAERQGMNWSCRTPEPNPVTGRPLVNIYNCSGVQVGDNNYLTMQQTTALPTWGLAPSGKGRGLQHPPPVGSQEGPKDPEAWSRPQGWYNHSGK
Outline: as §1

[5] = system: U937 human histiocytic leukemia cell line; assay: Inhibition of TSQ induced necroptosis in U937 cells (CellTitre-Glo); settings: Homo sapiens, U-937, TSQ cocktail (TNF, Smac mimetic, Q-VD-OPh), 48 hours, read-out: Inhibition of TSQ-induced necroptosis (IC50 cell-based assay)
Outline: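 Necroptosis was induced with TNF-Fc (100 ng/ml), Smac mimetic (500 nM) and Q-VD-OPh (10 μM) in 20000 U937 cells/well exposed to a 10-point, 3-fold compound series (top 36 μM, 0.3% DMSO). ATP luminescence read after 48 h; 4-parameter fit gave IC50. Parallel TSQ-free wells assessed compound toxicity.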

[6] = system: U937 cells; assay: Counter screen: U937 cell viability without TSQ cocktail (off-target effect); set-up: species or system human; settings: Homo sapiens, U-937, compound without TSQ cocktail, read-out: Off-target effect (IC50 cell-based assay)
Outline: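 Off-target viability counter screen: compounds titrated 36 μM down 1:3 over 10 points (0.3% DMSO) on 20,000 U937 cells/well, no TNF/Smac mimetic/Q-VD-OPh added, 48 h incubation. ATP-based CellTiter-Glo luminescence, four-parameter logistic IC50.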

Sequence of human MLKL (full length) (Q8NB16 whole entry): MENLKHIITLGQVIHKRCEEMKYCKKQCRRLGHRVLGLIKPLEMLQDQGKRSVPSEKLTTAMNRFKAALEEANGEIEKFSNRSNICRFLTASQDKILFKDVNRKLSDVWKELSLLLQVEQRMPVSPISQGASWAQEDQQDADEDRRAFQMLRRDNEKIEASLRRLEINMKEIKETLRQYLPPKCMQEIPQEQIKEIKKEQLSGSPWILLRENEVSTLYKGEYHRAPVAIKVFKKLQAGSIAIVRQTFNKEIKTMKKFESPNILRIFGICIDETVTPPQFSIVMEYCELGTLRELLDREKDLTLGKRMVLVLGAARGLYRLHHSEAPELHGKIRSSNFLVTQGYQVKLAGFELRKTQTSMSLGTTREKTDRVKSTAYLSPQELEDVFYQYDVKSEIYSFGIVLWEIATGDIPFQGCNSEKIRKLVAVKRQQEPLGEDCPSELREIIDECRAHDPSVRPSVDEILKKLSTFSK

pKd [1]	pKd [2]	pKd [3]	pKd [4]	Structure (SMILES)	pIC50 [5]	pIC50 [6]
> 9.00	> 9.00	< 5.00	< 5.00	Nc1ncc(-c2cnn(C3CCOCC3)c2)c2occ(-c3ccc(NS(=O)(=O)C(F)F)c(OCc4ccc(F)cc4)c3)c12 [Compound 5, N-(4-(4-amino-7-(1-(tetrahydro-2H-pyran-4-yl)-1H-pyrazol-4-yl)furo[3,2-c]pyridin-3-yl)-2-((4-fluorobenzyl)oxy)phenyl)-1,1-difluoromethanesulfonamide]		
7.00 to 9.00	> 9.00	< 5.00	< 5.00	C[C@H](Oc1cc(-c2coc3c(-c4cnn(C5CCOCC5)c4)cnc(N)c23)ccc1NS(=O)(=O)C(F)F)c1ccc(F)cc1 [Compound 7, (S)-N-(4-(4-amino-7-(1-(tetrahydro-2H-pyran-4-yl)-1H-pyrazol-4-yl)furo[3,2-c]pyridin-3-yl)-2-(1-(4-fluorophenyl)ethoxy)phenyl)-1,1-difluoromethanesulfonamide]	6.00 to 8.00	5.00 to 6.00
> 9.00	> 9.00	< 5.00	< 5.00	C[C@H](Oc1cc(-c2coc3c(-c4cnn(C)c4)cnc(N)c23)ccc1NS(=O)(=O)C(F)F)c1ccc(F)cc1 [Compound 8, (S)-N-(4-(4-amino-7-(1-methyl-1H-pyrazol-4-yl)furo[3,2-c]pyridin-3-yl)-2-(1-(4-fluorophenyl)ethoxy)phenyl)-1,1-difluoromethanesulfonamide]		
> 9.00	7.00 to 9.00	< 5.00	< 5.00	C[C@H](Oc1cc(-c2coc3c(-c4cnn(CCO)c4)cnc(N)c23)ccc1NS(=O)(=O)C(F)F)c1ccc(F)cc1 [Compound 9, (S)-N-(4-(4-amino-7-(1-(2-hydroxyethyl)-1H-pyrazol-4-yl)furo[3,2-c]pyridin-3-yl)-2-(1-(4-fluorophenyl)ethoxy)phenyl)-1,1-difluoromethanesulfonamide]	6.00 to 8.00	5.00 to 6.00
> 9.00	> 9.00	< 5.00	< 5.00	C[C@H](Oc1cc(-c2nn(C)c3c(-c4cnn(CCO)c4)cnc(N)c23)ccc1NS(=O)(=O)C(F)F)c1ccc(F)cc1 [Compound 15, (S)-N-(4-(4-amino-7-(1-(2-hydroxyethyl)-1H-pyrazol-4-yl)-1-methyl-1H-pyrazolo[4,3-c]pyridin-3-yl)-2-(1-(4-fluorophenyl)ethoxy)phenyl)-1,1-difluoromethanesulfonamide]	6.00 to 8.00	< 5.00
> 9.00	7.00 to 9.00	< 5.00	< 5.00	C[C@H](Oc1cc(-c2nn(C)c3c(-c4ccncc4)cnc(N)c23)ccc1NS(=O)(=O)C(F)F)c1ccc(F)cc1 [Compound 18, (S)-N-(4-(4-amino-1-methyl-7-(pyridin-4-yl)-1H-pyrazolo[4,3-c]pyridin-3-yl)-2-(1-(4-fluorophenyl)ethoxy)phenyl)-1,1-difluoromethanesulfonamide]	6.00 to 8.00	< 5.00
> 9.00	> 9.00	< 5.00	< 5.00	C[C@H](Oc1cc(-c2nn(C)c3c(-c4cnn(C)c4)cnc(N)c23)ccc1NS(=O)(=O)C(F)F)c1ccc(F)cc1 [Compound 20, (S)-N-(4-(4-amino-1-methyl-7-(1-methyl-1H-pyrazol-4-yl)-1H-pyrazolo[4,3-c]pyridin-3-yl)-2-(1-(4-fluorophenyl)ethoxy)phenyl)-1,1-difluoromethanesulfonamide]	6.00 to 8.00	< 5.00
7.00 to 9.00	> 9.00	< 5.00	< 5.00	C[C@H](Oc1cc(-c2nn(C)c3c(-c4cnn(CCN5CCN(C)CC5)c4)cnc(N)c23)ccc1NS(=O)(=O)C(F)F)c1ccc(F)cc1 [Compound 60, (S)-N-(4-(4-amino-1-methyl-7-(1-(2-(4-methylpiperazin-1-yl)ethyl)-1H-pyrazol-4-yl)-1H-pyrazolo[4,3-c]pyridin-3-yl)-2-(1-(4-fluorophenyl)ethoxy)phenyl)-1,1-difluoromethanesulfonamide]	6.00 to 8.00	< 5.00
7.00 to 9.00	7.00 to 9.00	< 5.00	< 5.00	C[C@H](Oc1cc(-c2nn(C)c3c(-c4cnn(C5CCN(CC(F)(F)F)CC5)c4)cnc(N)c23)ccc1NS(=O)(=O)C(F)F)c1ccc(F)cc1 [Compound 61, (S)-N-(4-(4-amino-1-methyl-7-(1-(1-(2,2,2-trifluoroethyl)piperidin-4-yl)-1H-pyrazol-4-yl)-1H-pyrazolo[4,3-c]pyridin-3-yl)-2-(1-(4-fluorophenyl)ethoxy)phenyl)-1,1-difluoromethanesulfonamide]	6.00 to 8.00	< 5.00
> 9.00	7.00 to 9.00	< 5.00	< 5.00	Nc1n[nH]c2nccc(-c3ccc(NS(=O)(=O)C(F)F)c(OCc4ccc(F)cc4)c3)c12 [Compound 66, N-(4-(3-Amino-1H-pyrazolo[3,4-b]pyridin-4-yl)-2-((4-fluorophenyl)methoxy)phenyl)-1,1-difluoromethanesulfonamide]		
> 9.00	7.00 to 9.00	< 5.00	< 5.00	Nc1n[nH]c2ncnc(-c3ccc(NS(=O)(=O)C(F)F)c(OCc4ccc(F)cc4)c3)c12 [Compound 69, N-(4-(3-Amino-1H-pyrazolo[3,4-d]pyrimidin-4-yl)-2-((4-fluorophenyl)methoxy)phenyl)-1,1-difluoromethanesulfonamide]		
> 9.00	7.00 to 9.00	< 5.00	< 5.00	Cc1cc(-c2ccc(NS(=O)(=O)C(F)F)c(OCc3ccc(F)cc3)c2)c2c(N)n[nH]c2n1 [Compound 70, N-(4-(3-Amino-6-methyl-1H-pyrazolo[3,4-b]pyridin-4-yl)-2-((4-fluorophenyl)methoxy)phenyl)-1,1-difluoromethanesulfonamide]		
> 9.00	7.00 to 9.00	< 5.00	< 5.00	C[C@H](Oc1cc(-c2ccnc3[nH]nc(N)c23)ccc1NS(=O)(=O)C(F)F)c1ccc(F)cc1 [Compound 72, N-(4-(3-Amino-1H-pyrazolo[3,4-b]pyridin-4-yl)-2-((1S)-1-(4-fluorophenyl)ethoxy)phenyl)-1,1-difluoromethanesulfonamide]	6.00 to 8.00	< 5.00
